Here are results for two molecules from ChEMBL document CHEMBL2413072, “Synthesis and in vitro anticancer studies of novel C-2 arylidene congeners of lantadenes” (2013).

Type in all cases: functional
The test system of one assay is K562. In words: Growth inhibition of human K562 cells assessed as cell growth at 10 uM by sulforhodamine B assay. The conditions noted are these: read-out: Activity.
For assay [1], the system named is OVCAR-3. In words: Growth inhibition of human OVCAR3 cells assessed as growth inhibition at 10 uM by sulforhodamine B assay. As to conditions: read-out: GI.
Assay [2] concerns UACC-62. In words: Growth inhibition of human UACC62 cells assessed as growth inhibition at 10 uM by sulforhodamine B assay. As to conditions: read-out: GI. (The SRB assay estimates cell density from bound dye.)
Another assay has as its system Malme-3M. In words: Growth inhibition of human MALME-3M cells assessed as growth inhibition at 10 uM by sulforhodamine B assay. As to conditions: read-out: GI.
Assay [3] concerns NCI-H522. In words: Growth inhibition of human NCI-H522 cells assessed as growth inhibition at 10 uM by sulforhodamine B assay. As to conditions: read-out: GI.
The test system of assay [4] is NCI-H23. Kind of assay: Growth inhibition of human NCI-H23 cells assessed as growth inhibition at 10 uM by sulforhodamine B assay. As to conditions: read-out: GI.
A further assay concerns RPMI-8226. In words: Growth inhibition of human RPMI8226 cells assessed as growth inhibition at 10 uM by sulforhodamine B assay. The conditions noted are these: read-out: GI.
For the next assay, the system named is CCRF-CEM. Kind of assay: Growth inhibition of human CCRF-CEM cells assessed as growth inhibition at 10 uM by sulforhodamine B assay. The conditions noted are these: read-out: GI.
Another assay concerns MCF7. In words: Growth inhibition of human MCF7 cells assessed as cell growth at 10 uM by sulforhodamine B assay. As to conditions: read-out: Activity.
The test system of a further assay is TK-10. Kind of assay: Growth inhibition of human TK10 cells assessed as cell growth at 10 uM by sulforhodamine B assay. As to conditions: read-out: Activity.
The next assay relates to SN12C. Kind of assay: Growth inhibition of human SN12C cells assessed as cell growth at 10 uM by sulforhodamine B assay. As to conditions: read-out: Activity.
The nature of assay [5]: Growth inhibition of human NCI-ADR-RES cells assessed as cell growth at 10 uM by sulforhodamine B assay. The conditions noted are these: read-out: Activity.
The test system of a further assay is OVCAR-8. In words: Growth inhibition of human OVCAR8 cells assessed as cell growth at 10 uM by sulforhodamine B assay. As to conditions: read-out: Activity.
Assay [6] relates to OVCAR-3. Kind of assay: Growth inhibition of human OVCAR3 cells assessed as cell growth at 10 uM by sulforhodamine B assay. The conditions noted are these: read-out: Activity.
The test system of assay [7] is UACC-62. Kind of assay: Growth inhibition of human UACC62 cells assessed as cell growth at 10 uM by sulforhodamine B assay. As to conditions: read-out: Activity.
For another assay, the system named is SF-539. In words: Growth inhibition of human SF539 cells assessed as cell growth at 10 uM by sulforhodamine B assay. As to conditions: read-out: Activity.
Another assay concerns SF-268. In words: Growth inhibition of human SF268 cells assessed as cell growth at 10 uM by sulforhodamine B assay. The conditions noted are these: read-out: Activity.
A further assay relates to HT-29. Kind of assay: Growth inhibition of human HT-29 cells assessed as cell growth at 10 uM by sulforhodamine B assay. The conditions noted are these: read-out: Activity.
A short description of assay [8]: Growth inhibition of human HCC2998 cells assessed as cell growth at 10 uM by sulforhodamine B assay. The conditions noted are these: HCC 2998, read-out: Activity.
Assay [9] has as its system NCI-H522. In words: Growth inhibition of human NCI-H522 cells assessed as cell growth at 10 uM by sulforhodamine B assay. As to conditions: read-out: Activity.
For assay [10], the system named is NCI-H23. Kind of assay: Growth inhibition of human NCI-H23 cells assessed as cell growth at 10 uM by sulforhodamine B assay. As to conditions: read-out: Activity.
Assay [11] is described as follows: Growth inhibition of human EKVX cells assessed as cell growth at 10 uM by sulforhodamine B assay. The conditions noted are these: read-out: Activity.

Regarding `CC1(C)C[C@@H](O)[C@]2(C(=O)O)CC[C@]3(C)C(=CC[C@@H]4[C@@]5(C)CCC(=O)C(C)(C)[C@@H]5CC[C@]43C)[C@@H]2C1`, the growth at 10 µM in the assay on K562 is 76.8%; with MCF7, 81.4%; in the assay on TK-10, 106%; in the assay with SN12C, 83.3%; in assay [5] it was 100%; with OVCAR-8, 80.8%. The growth at 10 µM is 104% in the assay with OVCAR-3 [6]; 80.5% in the assay on UACC-62 [7]; 106% with SF-539; 106% in the assay with SF-268; 83.2% with HT-29; 91% in assay [8]. Besides, the growth at 10 µM in the assay with NCI-H522 [9] was found to be 80.9%; in the assay with NCI-H23 [10], 92.3%; in assay [11], 99.2%. Also, the inhibition of growth at 10 µM was under 10% with OVCAR-3 [1]; 19.5% with UACC-62 [2]; 12.9% with Malme-3M; 19.1% in the assay with NCI-H522 [3]; under 10% in the assay with NCI-H23 [4]; 29.8% in the assay with RPMI-8226. In addition, the inhibition of growth at 10 µM with CCRF-CEM was 12.5%.
As to `COc1cc(/C=C2\C[C@]3(C)[C@H]4CC=C5[C@@H]6CC(C)(C)C[C@@H](O)[C@]6(C(=O)O)CC[C@@]5(C)[C@]4(C)CC[C@H]3C(C)(C)C2=O)ccc1O`, the growth at 10 µM came to 71.2% with K562; 77.5% in the assay on MCF7; 116% in the assay with TK-10; 87.5% in the assay on SN12C; 92.7% in assay [5]; 79.8% in the assay on OVCAR-8. Moreover, the growth at 10 µM in the assay with OVCAR-3 [6] worked out at 106%; in the assay with UACC-62 [7], 75%; with SF-539, 96.1%; with SF-268 it was 109%; with HT-29, 85.5%; in assay [8] it was 95.2%. The values for the growth at 10 µM (with NCI-H522 [9]; in the assay on NCI-H23 [10]; in assay [11]) were 80.8%, 85% and 88.5%, respectively. For the same molecule, the inhibition of growth at 10 µM was under 10% in the assay on OVCAR-3 [1]; 25% in the assay on UACC-62 [2]; 18.9% with Malme-3M; 19.2% in the assay on NCI-H522 [3]; 15% with NCI-H23 [4]; 40.5% in the assay with RPMI-8226. The inhibition of growth at 10 µM with CCRF-CEM came out at 18%.
